Data set [1] has as its target N-terminally truncated recombinant hDHODH enzyme (Homo sapiens, UniProt Q02127). Nature of the data set: biochemical. The data set is classed as biochemical. The procedure, abridged: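 DCIP reduction followed at 600 nm for 2 min, with 60 μM 2,6-dichloroindophenol, 50 μM decylubiquinone and 100 μM dihydroorotate (reaction started with dihydroorotate). Buffer 50 mM TrisHCl, 150 mM KCl, 0.1% Triton X-100, pH 8.0, 30° C. IC50 from at least six compound concentrations.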

The target in data set [2] is human URAT1 uptake transporter (Homo sapiens (Human), UniProt Q96S37). Nature of the data set: Human URAT1 uptake transporter assay (MDCKII-URAT1-LV, SOLVO). The data set is classed as cell-based. To be noted: 10 μM compound, 20 μM uric acid probe substrate. The method, then:
In the human URAT1 uptake transporter assay (host cell line: MDCKII), the accumulation of the probe substrate in the presence of a DHODH inhibitor (at a concentration of 10 μM) into cells was measured. The assay was executed at SOLVO with catalogue number MDCKII-URAT1-LV. 20 μM uric acid served as probe substrate. Reference inhibitor was benzbromarone at a concentration of 300 μM, which served as internal control.

A further data set deals with SARS-CoV-2. The data set is described as follows: SARS-CoV-2 viral replication (YFP) assay. The class given is cell-based. Particulars: Severe acute respiratory syndrome coronavirus 2, read-out: EC50 range.
For data set [3] the following is noted: high vidofludimus doses; cited from earlier work.
In the next data set the test system is SARS-CoV-2 d6-YFP. The data set is described as follows: Combinatorial drug assessment with EIDD-1931 by viral replication inhibition assay. The class given is cell-based.
A short description of data set [4]: Mouse pharmacokinetics, male and female, cassette dosing. The data set is classed as in vivo, mice (C57BL/6J). To be noted: for AUC / Cmax / half-life: C57BL/6J, mouse, in vivo; for AUC: 0 to 24 h; for Cmax: 5 mg/kg oral, 1 mg/kg intravenous cassette; for F: bioavailability. On the procedure:
The pharmacokinetics of the compounds of the present invention was evaluated in 3 male and 3 female mice (C57BL/6J, 8 week old) after oral or intravenous cassette dosing to assess the oral bioavailability. Dose was 5 mg/kg (oral) and 1 mg/kg (intravenous), application volume was 5 mL/kg (oral) and 0.5 mL/kg (intravenous), vehicle was 5% solutol, 95% NaCl solution (at 0.9% saline concentration) for oral and 5% solutol, 5% ethanol, 90% NaCl solution (at 0.9% saline concentration) for intravenous. At each designated time point (0.5, 1, 2, 4, 8 and 24 h after dosing), 20 μL whole blood were collected from the tail vein into Li-heparin tubes, frozen on dry ice within 1-2 minutes of sampling and stored at −20° C. until processed for LC-MS analysis.

Data set [5] in a line: Kinetic aqueous solubility in PBS at pH 7.4. Particulars: pH 7.4, aqueous buffer, kinetic from dmso stock.
Data set [6] can be described thus: Partition coefficient log D (n-octanol/PBS at pH 7.4). The class given is physicochemical. To be noted: n-octanol/PBS at pH 7.4; read-out: logD. On the procedure: The total amount of compound was determined as the peak area of the principal peak in a calibration standard (100 μM) containing organic solvent (MeOH/water, 60/40 v/v). The amount of compound in buffer was determined as the combined, volume-corrected and weighted areas of the corresponding peaks in the aqueous phases of three organic-aqueous samples of different composition. An automated weighting system was used to ensure the preferred use of raw data from those samples with well quantifiable peak signals. The amount of compound in organic was calculated by subtraction.
Subsequently, the partition coefficient (log D, n-octanol/PBS at pH 7.4) was calculated as the Log10 of the amount of compound in the organic phase divided by the amount of compound in the aqueous phase (Eurofins Discovery Services Item #417).

Setting [7] is: human DHODH assay, read-out: IC50 range.

We go through six molecules from patent US20250066290A1, “DHODH INHIBITORS CONTAINING A CARBOXYLIC ACID BIOISOSTERE” (IMMUNIC AG, priority 2021, published 2025).

Usually IC50 stands for the point on the concentration scale where inhibition reaches its midpoint. A word on the EC50: it is the midpoint of the concentration-response curve. For orientation: AUC means the area under the concentration-time curve, a measure of exposure. The low end stands for less exposure, the high end for more exposure. What is called Cmax is the peak of the concentration-time curve. A word on the half-life: it is how long it takes for the measured level to halve. Read a high half-life as slow loss. One may read the solubility as how much of the substance goes into solution per volume. Higher therefore signals much dissolved substance. As a reminder, the logD is lipophilicity at a set pH, counting ionised and neutral species.

≈ marks a conversion by molar mass, not a printed value. Read-outs that look alike come from different tables or passages of the source.

N-terminally truncated recombinant hDHODH enzyme, sequence (Q02127 whole entry, looked up, the tested form may be a part): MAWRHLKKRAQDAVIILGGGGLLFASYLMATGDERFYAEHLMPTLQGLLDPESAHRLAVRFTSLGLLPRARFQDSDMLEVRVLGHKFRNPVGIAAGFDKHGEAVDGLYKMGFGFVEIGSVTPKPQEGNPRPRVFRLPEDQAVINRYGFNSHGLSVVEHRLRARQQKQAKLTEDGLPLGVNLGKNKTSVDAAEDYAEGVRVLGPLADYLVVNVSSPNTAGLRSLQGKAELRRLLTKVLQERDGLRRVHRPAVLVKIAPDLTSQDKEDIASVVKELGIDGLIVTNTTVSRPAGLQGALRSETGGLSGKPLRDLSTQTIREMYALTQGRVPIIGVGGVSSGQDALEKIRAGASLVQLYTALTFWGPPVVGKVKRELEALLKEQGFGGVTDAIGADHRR
human URAT1 uptake transporter, sequence (Q96S37 whole entry): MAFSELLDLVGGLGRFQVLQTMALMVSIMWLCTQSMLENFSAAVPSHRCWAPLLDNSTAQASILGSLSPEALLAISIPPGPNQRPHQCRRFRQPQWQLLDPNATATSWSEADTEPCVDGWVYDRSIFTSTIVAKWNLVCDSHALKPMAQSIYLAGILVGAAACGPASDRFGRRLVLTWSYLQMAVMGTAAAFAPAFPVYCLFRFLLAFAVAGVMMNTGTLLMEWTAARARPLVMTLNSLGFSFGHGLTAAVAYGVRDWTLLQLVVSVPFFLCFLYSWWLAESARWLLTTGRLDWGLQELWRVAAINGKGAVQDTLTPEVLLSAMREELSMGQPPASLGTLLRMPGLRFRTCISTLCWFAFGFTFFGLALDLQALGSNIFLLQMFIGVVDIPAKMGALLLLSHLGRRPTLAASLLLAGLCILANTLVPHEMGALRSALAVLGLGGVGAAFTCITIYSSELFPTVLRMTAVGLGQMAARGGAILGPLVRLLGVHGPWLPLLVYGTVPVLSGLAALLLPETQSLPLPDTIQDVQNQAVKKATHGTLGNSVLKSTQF

With `NS(=O)(=O)NC(=O)C1=C(C(=O)Nc2c(F)c(F)c(-c3cccc(OC(F)(F)F)c3)c(F)c2F)CCC1` [Example 2, N^1-Sulfamoyl-N^2-(2,3,5,6-tetrafluoro-3′-(trifluoromethoxy)-[1,1′-biphenyl]-4-yl)cyclopent-1-ene-1,2-dicarboxamide], the IC50 in data set [1] (setting [7]) was less than 0.1 µM. In addition, the “human URAT1 uptake transporter stimulation @ 10 μM” value in data set [2] was found to be 72%. In the data set on SARS-CoV-2, the EC50 is 10 to 25 µM.

On to `COc1cccc(-c2ccc(NC(=O)C3=C(C(=O)O)CCC3)c(F)c2)c1` [vidofludimus, 2-((3-fluoro-3′-methoxy-[1,1′-biphenyl]-4-yl)carbamoyl)cyclopent-1-ene-1-carboxylic acid], for which, in data set [3], the “blood uric acid levels” value is given as “decrease” and the “urine red blood cell count” value is “increase”.

`CS(=O)(=O)NC(=O)C1=C(C(=O)Nc2c(F)c(F)c(-c3cccc(OC(F)(F)F)c3)c(F)c2F)CCC1` [Example 1, N^1-(Methylsulfonyl)-N^2-(2,3,5,6-tetrafluoro-3′-(trifluoromethoxy)-[1,1′-biphenyl]-4-yl)cyclopent-1-ene-1,2-dicarboxamide]: in data set [1] (setting [7]), the IC50 was less than 0.1 µM. Moreover, in data set [2], the “human URAT1 uptake transporter stimulation @ 10 μM” value worked out at 28%. Besides, the concentration giving a half-maximal response (EC50) with SARS-CoV-2 is 10 to 25 µM. Besides, the results for the “antiviral effect in combination with EIDD-1931” value with SARS-CoV-2 d6-YFP and with SARS-CoV-2 d6-YFP (listed as Compound 1) were “synergistic antiviral effect” and “synergistic antiviral effects”, respectively. Further, the AUC turned out to be 7350 ng·h/mL in data set [4] (female mice) and 3200 ng·h/mL in data set [4] (male mice). Moreover, the Cmax was 1320 ng/mL in data set [4] (female mice) and 754 ng/mL in data set [4] (male mice). Also, the F result was “♀ 217%” in data set [4] (female mice) and “♂ 49%” in data set [4] (male mice). The half-life in data set [4] (female) was found to be 2.8 h; in data set [4] (male), 2.9 h. The molecule also registered a solubility in data set [5] of 237 µM (≈ 128 µg/mL).

Regarding `[2H]C([2H])([2H])Oc1cccc(-c2cc(F)c(NC(=O)C3=C(C(=O)NS(N)(=O)=O)CCC3)c(F)c2)c1` [Example 2/1], the IC50 in data set [1] (setting [7]) was less than 0.1 µM. Also, the “human URAT1 uptake transporter stimulation @ 10 μM” value in data set [2] amounted to 22%. Also, the logD in data set [6] worked out at 0.5. For the same molecule, the EC50 with SARS-CoV-2 was greater than 50 µM. For the same molecule, the AUC in data set [4] (female mice) is 8610 ng·h/mL; in data set [4] (male mice), 3070 ng·h/mL. Also, the Cmax is 2280 ng/mL in data set [4] (female mice) and 1500 ng/mL in data set [4] (male mice). Moreover, the F entry was “♀ 144%” in data set [4] (female mice) and “♂ 60%” in data set [4] (male mice). For the same molecule, the figures for the half-life in data set [4] (female) and in data set [4] (male) were 2.4 h and 3.1 h, respectively. Besides, the solubility in data set [5] was 235 µM (≈ 107 µg/mL).

As for `O=C(Nc1c(F)c(F)c(-c2cccc(OC(F)(F)F)c2)c(F)c1F)C1=C(c2nn[nH]n2)CCC1` [Example 3, N-(2,3,5,6-Tetrafluoro-3′-(trifluoromethoxy)-[1,1′-biphenyl]-4-yl)-2-(2H-tetrazol-5-yl)cyclopent-1-ene-1-carboxamide], the IC50 in data set [1] is 0.1 to 1 µM. In addition, the “human URAT1 uptake transporter stimulation @ 10 μM” value in data set [2] is given as less than 20%. The EC50 with SARS-CoV-2 is less than 10 µM. In data set [5], this molecule had a solubility of 207 µM (≈ 101 µg/mL).

Take `[2H]C([2H])([2H])Oc1cccc(-c2cc(F)c(NC(=O)C3=C(C(=O)NS(C)(=O)=O)CCC3)c(F)c2)c1` [Example 1/1]: in data set [2], the “human URAT1 uptake transporter stimulation @ 10 μM” value is recorded as less than 20%. Further, the logD in data set [6] was found to be 0.9. In the data set on SARS-CoV-2, the half-maximal effective concentration (EC50) was in the range of 25 to 50 µM. In data set [5], the solubility came out at 227 µM (≈ 103 µg/mL).
